Test results taken from patent US20130197080A1, “USE OF TERIFLUNOMIDE FOR TREATING MULTIPLE SCLEROSIS” (SANOFI, priority 2010, published 2013).
Values joined by “and” are separate entries in the source; they are usually repeats but may differ in a detail not shown here. Equal values may be shown once.

System: patients with RMS
Experiment: TEMSO Phase III trial: safety and tolerability (adverse events, laboratory tests)
Settings: for incidence of ALT increase (≧1×ULN) / incidence of ALT ≧3×ULN: laboratory; for proportion of patients with TEAEs potentially related to hypersensitivity/skin disorders: selected SMQs terms; for patients with increased ALT ≧3×ULN and total bilirubin ≧2×ULN: considered non drug-induced
[1] = 7 mg once daily oral, safety population (N = 368)
[2] = 14 mg once daily oral, safety population (N = 358)
[3] = teriflunomide treatment, occurred over the first 3 months, slightly more marked with 14 mg

C/C(O)=C(\C#N)C(=O)Nc1ccc(C(F)(F)F)cc1 [teriflunomide, (Z)-2-cyano-3-hydroxy-but-2-enoic acid-(4′-trifluoromethylphenyl)-amide]
Serious adverse event, Blood disorders: Anemia (7 mg (N = 368)): 1 (0.3%) n (%) | Serious adverse event, Blood disorders: Neutropenia (7 mg (N = 368)): 0 n (%) | Serious adverse event, Blood disorders: Neutrophil count decreased (7 mg (N = 368)): 0 n (%) | Serious adverse event, Hepatic and hepatobiliary disorders: Alanine aminotransferase increased (7 mg (N = 368)): 5 (1.4%) n (%) | Serious adverse event, Hepatic and hepatobiliary disorders: Hepatic enzyme increased (7 mg (N = 368)): 0 n (%) | Serious adverse event, Hepatic and hepatobiliary disorders: Hepatitis toxic (7 mg (N = 368)): 0 n (%) | Serious adverse event, Hepatic and hepatobiliary disorders: Liver injury (7 mg (N = 368)): 1 (0.3%) n (%) | Serious adverse event, Hepatic and hepatobiliary disorders: Transaminases increased (7 mg (N = 368)): 1 (0.3%) n (%) | Serious adverse event, Infections: Appendicitis (7 mg (N = 368)): 2 (0.5%) n (%) | Serious adverse event, Infections: Bacteremia (7 mg (N = 368)): 0 n (%) | Serious adverse event, Infections: Cellulitis (7 mg (N = 368)): 0 n (%) | Serious adverse event, Infections: Cytomegalovirus hepatitis (7 mg (N = 368)): 0 n (%) | Serious adverse event, Infections: Erysipelas (7 mg (N = 368)): 1 (0.3%) n (%) | Serious adverse event, Infections: Gastroenteritis (7 mg (N = 368)): 0 n (%) | Serious adverse event, Infections: Hepatitis C (7 mg (N = 368)): 0 n (%) | Serious adverse event, Infections: Herpes zoster (7 mg (N = 368)): 0 n (%) | Serious adverse event, Infections: Infected cyst (7 mg (N = 368)): 1 (0.3%) n (%) | Serious adverse event, Infections: Lung infection (7 mg (N = 368)): 0 n (%) | Serious adverse event, Infections: Pneumonia (7 mg (N = 368)): 2 (0.5%) n (%) | Serious adverse event, Infections: Pyelonephritis (7 mg (N = 368)): 0 n (%) | Serious adverse event, Infections: Renal abscess (7 mg (N = 368)): 0 n (%) | Serious adverse event, Infections: Urinary tract infection (7 mg (N = 368)): 0 n (%) | Serious adverse event, Infections: Urinary tract infection enterococcal (7 mg (N = 368)): 0 n (%) | Serious adverse event, Malignant neoplasms: Breast cancer (7 mg (N = 368)): 0 n (%) | Serious adverse event, Malignant neoplasms: Cervix carcinoma stage 0 (7 mg (N = 368)): 0 n (%) | Serious adverse event, Malignant neoplasms: Thyroid cancer (7 mg (N = 368)): 0 n (%) | Serious adverse event, Pancreatic disorders: Lipase increased (7 mg (N = 368)): 2 (0.5%) n (%) | Serious adverse event, Pancreatic disorders: Pancreatitis (7 mg (N = 368)): 0 n (%) | TEAE potentially related to hypersensitivity/skin reactions: Erythema (7 mg (N = 368)): 7 (1.9%) n (%) | TEAE potentially related to hypersensitivity/skin reactions: Pruritus (7 mg (N = 368)): 13 (3.5%) n (%) | TEAE potentially related to hypersensitivity/skin reactions: Pruritus rash (7 mg (N = 368)): 2 (0.5%) n (%) | TEAE potentially related to hypersensitivity/skin reactions: Urticaria (7 mg (N = 368)): 4 (1.1%) n (%) | Polyneuropathy incidence (7 mg group): 0.3% | TEAEs (patients) (7 mg group): 89.1% | TEAEs leading to treatment discontinuation (7 mg group): 9.8% | diarrhea leading to treatment discontinuation (7 mg group): 0.3% | hair thinning/decreased hair density leading to treatment discontinuation (7 mg group): 0.5% | incidence of serious hepatic disorders (ALT >8×ULN and/or ALT >3×ULN with total bilirubin >3 mg/dL and/or any hepatic event with seriousness criterion) (7 mg group): 1.9% | incidence of serious infections (7 mg group): 1.6% | induced abortions among pregnancies during the trial (7 mg group): 5 | nausea leading to treatment discontinuation (7 mg group): 0.3% | neutropenia disorders (patients) (7 mg group): 2.2% | patients with mild or moderate peripheral neuropathy with conduction confirmation (7 mg group): four | proportion of patients experiencing any bone marrow TEAE (7 mg group): 9.8% | proportion of patients with TEAEs related to blood pressure increase (7 mg group): 5.4% | serious TEAEs (patients) (7 mg group): 14.1% | incidence of ALT increase (≧1×ULN) (7 mg group): 54.0% | incidence of ALT ≧3×ULN (7 mg group): 6.3% | proportion of patients with TEAEs potentially related to hypersensitivity/skin disorders (7 mg group): 10.3% | neutrophil count decrease in case of neutropenia leading to treatment discontinuation (7 mg group, single patient): 8.7e+08 L⁻¹ | neutrophil count after recovery (7 mg group, single patient, three days after treatment discontinuation): 1.34e+09 L⁻¹ | patients with increased ALT ≧3×ULN and total bilirubin ≧2×ULN (7 mg group): one | Any event leading to death [1]: 0 n (%) | Any treatment emergent adverse event leading to discontinuation of study drug [1]: 36 (9.8) n (%) | Any treatment emergent serious adverse event [1]: 52 (14.1) n (%) | At least one treatment emergent adverse event [1]: 328 (89.1) n (%) | TEAE Alanine aminotransferase increased (reported as adverse event by the investigator) [1]: 44 (12.0) no. of patients (%) | TEAE Back pain [1]: 39 (10.6) no. of patients (%) | TEAE Diarrhea [1]: 54 (14.7) no. of patients (%) | TEAE Fatigue [1]: 47 (12.8) no. of patients (%) | TEAE Hair thinning/decreased hair density (MedDRA: alopecia) [1]: 38 (10.3) no. of patients (%) | TEAE Headache [1]: 81 (22.0) no. of patients (%) | TEAE Nasopharyngitis [1]: 94 (25.5) no. of patients (%) | TEAE Nausea [1]: 33 (9.0) no. of patients (%) | TEAE Pain in extremity [1]: 26 (7.1) no. of patients (%) | TEAE Urinary tract infection [1]: 27 (7.3) no. of patients (%) | Serious adverse event, Blood disorders: Anemia (14 mg (N = 358)): 0 n (%) | Serious adverse event, Blood disorders: Neutropenia (14 mg (N = 358)): 1 (0.3%) n (%) | Serious adverse event, Blood disorders: Neutrophil count decreased (14 mg (N = 358)): 1 (0.3%) n (%) | Serious adverse event, Hepatic and hepatobiliary disorders: Alanine aminotransferase increased (14 mg (N = 358)): 5 (1.4%) n (%) | Serious adverse event, Hepatic and hepatobiliary disorders: Hepatic enzyme increased (14 mg (N = 358)): 1 (0.3%) n (%) | Serious adverse event, Hepatic and hepatobiliary disorders: Hepatitis toxic (14 mg (N = 358)): 1 (0.3%) n (%) | Serious adverse event, Hepatic and hepatobiliary disorders: Liver injury (14 mg (N = 358)): 0 n (%) | Serious adverse event, Hepatic and hepatobiliary disorders: Transaminases increased (14 mg (N = 358)): 1 (0.3%) n (%) | Serious adverse event, Infections: Appendicitis (14 mg (N = 358)): 0 n (%) | Serious adverse event, Infections: Bacteremia (14 mg (N = 358)): 1 (0.3%) n (%) | Serious adverse event, Infections: Cellulitis (14 mg (N = 358)): 0 n (%) | Serious adverse event, Infections: Cytomegalovirus hepatitis (14 mg (N = 358)): 1 (0.3%) n (%) | Serious adverse event, Infections: Erysipelas (14 mg (N = 358)): 0 n (%) | Serious adverse event, Infections: Gastroenteritis (14 mg (N = 358)): 1 (0.3%) n (%) | Serious adverse event, Infections: Hepatitis C (14 mg (N = 358)): 0 n (%) | Serious adverse event, Infections: Herpes zoster (14 mg (N = 358)): 0 n (%) | Serious adverse event, Infections: Infected cyst (14 mg (N = 358)): 0 n (%) | Serious adverse event, Infections: Lung infection (14 mg (N = 358)): 0 n (%) | Serious adverse event, Infections: Pneumonia (14 mg (N = 358)): 0 n (%) | Serious adverse event, Infections: Pyelonephritis (14 mg (N = 358)): 3 (0.8%) n (%) | Serious adverse event, Infections: Renal abscess (14 mg (N = 358)): 1 (0.3%) n (%) | Serious adverse event, Infections: Urinary tract infection (14 mg (N = 358)): 1 (0.3%) n (%) | Serious adverse event, Infections: Urinary tract infection enterococcal (14 mg (N = 358)): 1 (0.3%) n (%) | Serious adverse event, Malignant neoplasms: Breast cancer (14 mg (N = 358)): 0 n (%) | Serious adverse event, Malignant neoplasms: Cervix carcinoma stage 0 (14 mg (N = 358)): 1 (0.3%) n (%) | Serious adverse event, Malignant neoplasms: Thyroid cancer (14 mg (N = 358)): 0 n (%) | Serious adverse event, Pancreatic disorders: Lipase increased (14 mg (N = 358)): 0 n (%) | Serious adverse event, Pancreatic disorders: Pancreatitis (14 mg (N = 358)): 0 n (%) | TEAE potentially related to hypersensitivity/skin reactions: Erythema (14 mg (N = 358)): 4 (1.1%) n (%) | TEAE potentially related to hypersensitivity/skin reactions: Pruritus (14 mg (N = 358)): 10 (2.8%) n (%) | TEAE potentially related to hypersensitivity/skin reactions: Pruritus rash (14 mg (N = 358)): 1 (0.3%) n (%) | TEAE potentially related to hypersensitivity/skin reactions: Urticaria (14 mg (N = 358)): 3 (0.8%) n (%) | Polyneuropathy incidence (14 mg group): 0.8% | TEAEs (patients) (14 mg group): 90.8% | TEAEs leading to treatment discontinuation (14 mg group): 10.9% | diarrhea leading to treatment discontinuation (14 mg group): 0.3% | hair thinning/decreased hair density leading to treatment discontinuation (14 mg group): 1.4% | incidence of serious hepatic disorders (ALT >8×ULN and/or ALT >3×ULN with total bilirubin >3 mg/dL and/or any hepatic event with seriousness criterion) (14 mg group): 2.5% | incidence of serious infections (14 mg group): 2.5% | induced abortions among pregnancies during the trial (14 mg group): 1 | nausea leading to treatment discontinuation (14 mg group): 0.0% | neutropenia disorders (patients) (14 mg group): 4.5% | patients who discontinued treatment due to pruritus (14 mg group): One | patients with mild or moderate peripheral neuropathy with conduction confirmation (14 mg group): six | proportion of patients experiencing any bone marrow TEAE (14 mg group): 7.5% | proportion of patients with TEAEs related to blood pressure increase (14 mg group): 5.0% | serious TEAEs (patients) (14 mg group): 15.9% | spontaneous abortions among pregnancies during the trial (14 mg group): 3 | incidence of ALT increase (≧1×ULN) (14 mg group): 57.3% | incidence of ALT ≧3×ULN (14 mg group): 6.7% | proportion of patients with TEAEs potentially related to hypersensitivity/skin disorders (14 mg group): 11.2% | neutrophil count in cases of moderate neutrophil count decrease (serious AEs) (14 mg group, two patients): 9.5e+08 L⁻¹ and 9e+08 L⁻¹ | neutrophil count after recovery (14 mg group, two patients, a few days later, treatment continuing): 2.09e+09 L⁻¹ and 3.82e+09 L⁻¹ | patients with malignant neoplasms (14 mg group, cervix carcinoma in situ (stage 0) after 1.5 years treatment): one | patients with increased ALT ≧3×ULN and total bilirubin ≧2×ULN (14 mg group): one | Any event leading to death [2]: 0 n (%) | Any treatment emergent adverse event leading to discontinuation of study drug [2]: 39 (10.9) n (%) | Any treatment emergent serious adverse event [2]: 57 (15.9) n (%) | At least one treatment emergent adverse event [2]: 325 (90.8) n (%) | TEAE Alanine aminotransferase increased (reported as adverse event by the investigator) [2]: 51 (14.2) no. of patients (%) | TEAE Back pain [2]: 41 (11.5) no. of patients (%) | TEAE Diarrhea [2]: 64 (17.9) no. of patients (%) | TEAE Fatigue [2]: 52 (14.5) no. of patients (%) | TEAE Hair thinning/decreased hair density (MedDRA: alopecia) [2]: 47 (13.1) no. of patients (%) | TEAE Headache [2]: 67 (18.7) no. of patients (%) | TEAE Nasopharyngitis [2]: 93 (26.0) no. of patients (%) | TEAE Nausea [2]: 49 (13.7) no. of patients (%) | TEAE Pain in extremity [2]: 33 (9.2) no. of patients (%) | TEAE Urinary tract infection [2]: 37 (10.3) no. of patients (%) | serious opportunistic infections (across groups): no serious opportunistic infections observed | increases in amylase and lipase (mean change from baseline) (across the three treatment groups): No increases | deaths (all groups): No deaths occurred | treatment discontinuation due to increased blood pressure (all groups): No patient discontinued treatment | neutrophil count in three cases of moderate neutropenia (on teriflunomide): 9e+08 L⁻¹ | adverse event potentially attributed to interstitial lung disease (SMQ terms) (teriflunomide groups): No adverse event | average increase in diastolic blood pressure (teriflunomide groups): < 2 mmHg | average increase in systolic blood pressure (teriflunomide groups): < 4 mmHg | mean reduction from baseline in lymphocyte counts [3]: 3e+08 L⁻¹ | mean reduction from baseline in neutrophil counts [3]: 1e+09 L⁻¹
